Target: T1, HMG-CoA reductase (Rattus norvegicus, UniProt P51639)
T1 sequence (P51639 1-887): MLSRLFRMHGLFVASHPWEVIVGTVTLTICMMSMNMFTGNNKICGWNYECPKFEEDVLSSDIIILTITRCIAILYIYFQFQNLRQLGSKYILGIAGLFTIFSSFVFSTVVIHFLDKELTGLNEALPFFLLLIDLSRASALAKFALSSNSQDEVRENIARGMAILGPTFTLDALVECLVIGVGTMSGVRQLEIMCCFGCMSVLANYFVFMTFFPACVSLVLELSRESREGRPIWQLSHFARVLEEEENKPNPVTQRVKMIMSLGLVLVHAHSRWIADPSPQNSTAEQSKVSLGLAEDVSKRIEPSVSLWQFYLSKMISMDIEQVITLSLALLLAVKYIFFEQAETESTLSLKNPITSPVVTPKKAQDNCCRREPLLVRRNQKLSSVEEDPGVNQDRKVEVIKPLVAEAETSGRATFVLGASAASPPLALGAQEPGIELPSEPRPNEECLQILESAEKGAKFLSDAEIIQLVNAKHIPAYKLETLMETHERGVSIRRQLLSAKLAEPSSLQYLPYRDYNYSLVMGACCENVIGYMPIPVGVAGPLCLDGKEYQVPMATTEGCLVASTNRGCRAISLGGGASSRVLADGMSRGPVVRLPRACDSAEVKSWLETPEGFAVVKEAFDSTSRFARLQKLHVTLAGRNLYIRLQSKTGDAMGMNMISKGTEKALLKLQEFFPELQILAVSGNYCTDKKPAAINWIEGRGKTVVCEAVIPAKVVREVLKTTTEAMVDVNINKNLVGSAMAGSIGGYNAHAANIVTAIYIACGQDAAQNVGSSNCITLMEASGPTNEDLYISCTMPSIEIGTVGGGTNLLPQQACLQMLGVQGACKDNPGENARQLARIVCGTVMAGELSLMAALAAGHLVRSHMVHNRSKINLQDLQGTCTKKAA
Assay: intrinsic HMG-CoA reductase inhibition (in vitro procedure detailed in U.S. Pat. No. 4,668,699)
Assay type: biochemical
Conditions: 2,4 dichloro derivatives of formula I

Row | Structure (SMILES) | IC50
1 | O=C1C[C@@H](c2ccccc2)C[C@H](CCc2ccc(Cl)cc2Cl)O1 (relative stereo) [Example 1, trans-6-[2-(2,4-dichlorophenyl)ethyl]-3,4,5,6-tetrahydro-4-phenyl-2H-pyran-2-one] | 21 µM
2 | O=C1C[C@H](c2ccc(-c3ccccc3)cc2)C[C@@H](CCc2ccc(Cl)cc2Cl)O1 (relative stereo) [Example 2] | 33.6 µM
3 | COc1ccc([C@@H]2CC(=O)O[C@@H](CCc3ccc(Cl)cc3Cl)C2)cc1 (relative stereo) [Example 4] | 43.5 µM
4 | O=C1C[C@@H](c2ccc(O)cc2)C[C@H](CCc2ccc(Cl)cc2Cl)O1 (relative stereo) [Example 5] | 20.8 µM
5 | O=C1C[C@@H](c2ccccc2CO)C[C@H](CCc2ccc(Cl)cc2Cl)O1 (relative stereo) [Example 8] | 42 µM
